Test results reported in the NIST ThermoML archive (doi:10.1021/je300920t).
± gives the expanded uncertainty stated by the source.

What was measured:
[1] = Drop volume
[2] = xn = mol fraction of the nth substance listed; details: Drop volume, x1 = 0.5412

surface tension liquid-gas ([1]; 293.15 K)	surface tension liquid-gas ([1]; 303.15 K)	surface tension liquid-gas ([1]; 313.15 K)	surface tension liquid-gas ([2]; 313.15 K)	surface tension liquid-gas ([2]; 323.15 K)	surface tension liquid-gas ([2]; 333.15 K)	surface tension liquid-gas ([2]; 343.15 K)	SMILES
48.48 ± 0.47 mN/m	47.64 ± 0.46 mN/m	46.88 ± 0.46 mN/m	–	–	–	–	NCCO [2-aminoethan-1-ol]
–	–	–	51.5 ± 1.8 mN/m	50.4 ± 1.8 mN/m	49.3 ± 1.8 mN/m	48.1 ± 1.8 mN/m	NCCO [2-aminoethan-1-ol] + O
